According to paper PMC11827123 (Journal of medicinal chemistry, 2023):

How the values were obtained:
RBC = RBC lysis in vitro assay; format: cell-based
[1] = system: mouse red blood cells (RBCs); assay: In vitro hemolysis assay, mouse RBCs; format: cell-based
[2] = system: human red blood cells (RBCs); assay: In vitro hemolysis assay, human RBCs; format: cell-based
FeSSIF solubility = format: physicochemical; conditions: result in words
Microsomal = format: in vitro ADME, human; conditions: result in words
[3] = Mouse pharmacokinetics, oral and intravenous dosing; conditions: mice, PK study with oral and iv dosing
MOLT4 cells = assay: Quantitative MS degradation proteomics in MOLT4 cells; conditions: 6 h treatment
HepG2 cell line [4] = assay: LipidTOX Red phospholipidosis imaging assay; format: cell-based
HepG2 cell line [5] = assay: HepG2 viability; format: cell-based
[6] = system: HiBiT-tagged v3 EML4-ALK (WT and clinically relevant mutations); assay: EML4-ALK HiBiT degradation assay, general / clinically relevant mutations; conditions: result in words
[7] = target: HiBiT-tagged v3 EML4-ALK G1202R (Homo sapiens, UniProt Q9HC35+Q9UM73, G1202R); assay: EML4-ALK HiBiT degradation assay, G1202R; conditions: Ba/F3, result in words
Chain of HiBiT-tagged v3 EML4-ALK G1202R (Q9UM73 1058-1620 G1202R limits assumed, one chain of several): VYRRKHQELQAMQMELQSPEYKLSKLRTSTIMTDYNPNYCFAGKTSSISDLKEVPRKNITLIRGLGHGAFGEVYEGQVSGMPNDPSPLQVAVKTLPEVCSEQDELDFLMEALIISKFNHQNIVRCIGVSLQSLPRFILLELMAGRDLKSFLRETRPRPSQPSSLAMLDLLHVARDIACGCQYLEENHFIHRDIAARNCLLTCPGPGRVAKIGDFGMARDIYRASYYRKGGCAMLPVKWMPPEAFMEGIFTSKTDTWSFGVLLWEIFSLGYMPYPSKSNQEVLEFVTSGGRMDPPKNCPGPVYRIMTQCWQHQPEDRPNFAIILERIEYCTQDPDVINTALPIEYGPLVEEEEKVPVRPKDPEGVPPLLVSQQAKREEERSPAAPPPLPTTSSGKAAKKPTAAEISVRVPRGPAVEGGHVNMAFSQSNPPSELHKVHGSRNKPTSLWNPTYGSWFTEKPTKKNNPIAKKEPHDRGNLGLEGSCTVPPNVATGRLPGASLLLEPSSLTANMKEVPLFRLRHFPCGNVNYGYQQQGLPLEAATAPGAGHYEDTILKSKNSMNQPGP

[8] = target: HiBiT-tagged v3 EML4-ALK wild-type (WT) (Homo sapiens, UniProt Q9HC35+Q9UM73); assay: EML4-ALK HiBiT degradation assay, WT; conditions: result in words
Chain of HiBiT-tagged v3 EML4-ALK wild-type (WT) (Q9UM73 1058-1620 limits assumed, one chain of several): as the sequence (Q9UM73 1058-1620 G1202R limits assumed, one chain of several) above, with R145G counted along it

SMILES: COc1cc(CCNCCCCCC#Cc2cccc3c2C(=O)N(C2CCC(=O)NC2=O)C3=O)c(C)cc1Nc1ncc(Cl)c(Nc2ccccc2S(=O)(=O)C(C)C)n1 (centres unmarked) [CPD-198, 4-(7-((4-((5-Chloro-4-((2-(isopropylsulfonyl)-phenyl)amino)pyrimidin-2-yl)amino)-5-methoxy-2-methylphenethyl)amino)hept-1-yn-1-yl)-2-(2,6-dioxopiperidin-3-yl)isoindoline-1,3-dione]
- RBC lysis in vitro (RBC): caused RBC lysis

SMILES: COc1cc(CCNCCCCCC#Cc2cccc3c2CN(C2CCC(=O)NC2=O)C3=O)c(C)cc1Nc1ncc(Cl)c(Nc2ccccc2S(=O)(=O)C(C)C)n1 (centres unmarked) [CPD-985, 3-(4-(7-((4-((5-Chloro-4-((2-(isopropylsulfonyl)-phenyl)amino)pyrimidin-2-yl)amino)-5-methoxy-2-methylphenethyl)amino)hept-1-yn-1-yl)-1-oxoisoindolin-2-yl)piperidine-2,6-dione]
- in vitro hemolysis [1]: confirmed
- in vitro hemolysis [2]: confirmed
- solubility in fed state simulated intestinal fluid (FeSSIF) (FeSSIF solubility): good solubility
- metabolic / microsomal stability (Microsomal): slightly improved metabolic stability relative to CPD-198
- hemolysis in vivo [3]: hemolysis was also observed

SMILES: COc1cc(C2CCN(CCCCCC#Cc3cccc4c3CN(C3CCC(=O)NC3=O)C4=O)CC2)c(C)cc1Nc1ncc(Cl)c(Nc2ccccc2S(=O)(=O)C(C)C)n1 (centres unmarked) [CPD-1108, 3-(4-(7-(4-(4-((5-Chloro-4-((2-(isopropylsulfonyl)phenyl)amino)pyrimidin-2-yl)amino)-5-methoxy-2-methylphenyl)piperidin-1-yl)hept-1-yn-1-yl)-1-oxoisoindolin-2-yl)piperidine-2,6-dione]
- RBC lysis in vitro (RBC): weak positive

SMILES: COc1cc(C2CCN(CCCC#Cc3cccc4c3CN(C3CCC(=O)NC3=O)C4=O)CC2)c(C)cc1Nc1ncc(Cl)c(Nc2ccccc2S(=O)(=O)C(C)C)n1 (centres unmarked) [CPD-1131]
- RBC lysis in vitro (RBC): RBC lysis was avoided
- proteins degraded to any significant extent (MOLT4 cells): five
- metabolic / microsomal stability (Microsomal): good microsomal stability

SMILES: COc1cc(C2CCN(CC3CN(c4ccc5c(c4)C(=O)N(C4CCC(=O)NC4=O)C5=O)C3)CC2)c(C)cc1Nc1ncc(Cl)c(Nc2ccccc2S(=O)(=O)C(C)C)n1 (centres unmarked) [CPD-1224, 5-{3-[(4-{4-[(5-Chloro-4-{[2-(propane-2-sulfonyl)phenyl]amino}pyrimidin-2-yl)amino]-5-methoxy-2-methylphenyl}piperidin-1-yl)methyl]azetidin-1-yl}−2-(2,6-dioxopiperidin-3-yl)-2,3-dihydro-1H-isoindole-1,3-dione]
- phospholipidosis (phospholipid accumulation) (HepG2 cell line [4]): did not possess these effects
- RBC lysis in vitro (RBC): did not possess RBC lysis
- metabolic / microsomal stability (Microsomal): improved metabolic stability relative to the isoindolinone congener CPD-1793
- cytotoxicity (HepG2 cell line [5]): did not possess these effects

SMILES: COc1cc(C2CCN(CC3CN(c4ccc5c(c4)C(=O)N(C4CCC(=O)N(C)C4=O)C5=O)C3)CC2)c(C)cc1Nc1ncc(Cl)c(Nc2ccccc2S(=O)(=O)C(C)C)n1 (centres unmarked) [CPD-1224NC, 5-(3-((4-(4-((5-Chloro-4-((2-(isopropylsulfonyl)-phenyl)amino)pyrimidin-2-yl)amino)-5-methoxy-2-methylphenyl)piperidin-1-yl)methyl)azetidin-1-yl)-2-(1-methyl-2,6-dioxopiperidin-3-yl)isoindoline-1,3-dione]
- EML4-ALK degradation potency / efficacy (general, clinical mutations) [6]: retains weak degradation activity

SMILES: CCc1cc2c(cc1N1CCN(CC3CN(c4ccc5c(c4)C(=O)N(C4CCC(=O)NC4=O)C5=O)C3)CC1)C(C)(C)c1[nH]c3cc(C#N)ccc3c1C2=O (centres unmarked) [CPD-1403, 8-(4-((1-(2-(2,6-Dioxopiperidin-3-yl)-1,3-dioxoisoindolin-5-yl)azetidin-3-yl)methyl)piperazin-1-yl)-9-ethyl-6,6-dimethyl-11-oxo-6,11-dihydro-5H-benzo[b]carbazole-3-carbonitrile]
- metabolic / microsomal stability (Microsomal): high microsomal stability

SMILES: Cc1cc(Nc2ncc(Cl)c(Nc3ccccc3S(=O)(=O)C(C)C)n2)c(OC(C)C)cc1C1CCN(CCOCCOCCNC(=O)CNc2cccc3c2C(=O)N(C2CCC(=O)NC2=O)C3=O)CC1 (centres unmarked) [TL13–112]
- degradation activity for G1202R mutation [7]: low degradation activity
- shift between cellular ALK occupancy (NanoBRET) and degradation potency, WT [8]: only a small shift

SMILES: Cc1cc(Nc2ncc(Cl)c(Nc3ccccc3S(=O)(=O)C(C)C)n2)c(OC(C)C)cc1C1CCNCC1 [ceritinib, reference compound]
- phospholipidosis (phospholipid accumulation) (HepG2 cell line [4]): confirmed the phospholipidosis
- cytotoxicity (HepG2 cell line [5]): cytotoxicity
